Source: US20140031427A1, “COMBINATIONS OF ADAPALENE AND BENZOYL PEROXIDE FOR TREATING ACNE LESIONS” (GALDERMA RESEARCH & DEVELOPMENT, priority 2006, published 2014)
Several values for one entry are separate records, joined by “and”; a condition that tells them apart may be missing. Equal values may be shown once.

Assays:
[1] = Pooled analysis of three adapalene-BPO clinical studies: safety (adverse events, local facial tolerability); assay type: in vivo, human; details: 12 weeks, safety population; adapalene 0.1%, BPO 2.5%
Procedure: (§1) Three multicenter, double-blind, randomized and controlled studies on the efficacy and safety of adapalene-BPO were conducted in 157 centers in the U.S, Puerto Rico, Canada, Germany, Poland and Hungary.^19-21 Patients were randomized to receive adapalene 0.1%-BPO 2.5% (Epiduo®, Galderma Laboratories), adapalene 0.1%, BPO 2.5% or vehicle once daily in the evening for 12 weeks. Adapalene and BPO used in the studies were formulated in the same gel vehicle as adapalene-BPO, instead of as the respective commercial products (Differin® and Benzac®, Galderma Laboratories). Efficacy and safety assessments were performed at each study visit, occurred at baseline, weeks 1, 2, 4, 8 and 12.
Safety of the treatments was evaluated through reporting of adverse events (AE) and assessments of local facial tolerability. At each study visit, the investigators rated signs of erythema, scaling, dryness and stinging/burning on a scale from 0 (none) to 3 (severe).
(§2) Data from the three studies were pooled and analyzed. Efficacy was evaluated in the intent-to-treat (ITT) population, which included all patients who were randomized and dispensed study medicine. Safety was assessed in the safety population, which included all patients who were randomized and treated at least once.

acne lesions = test: Clinical study of topical gel combining adapalene + BPO vs monads and vehicle, 517 patients, 12 weeks; assay type: in vivo, human; details: for reduction in lesions: all lesions, week 12, rounded values in text; for Degree of success / Progress of the lesions (as median absolute numbers): Number of inflammatory lesions / Progress of the lesions (as median absolute numbers): Number of non-inflammatory lesions / Progress of the lesions (as median absolute numbers): Total number of lesions / Progress of the lesions (median percentages): Number of inflammatory lesions / Progress of the lesions (median percentages): Number of non-inflammatory lesions / Progress of the lesions (median percentages): Total number of lesions: week 12, ITT, adapalene 0.1%, BPO 2.5%; for Degree of success: % patients clear or almost clear, gels once a day
Procedure: A clinical study for confirmation of efficacy was performed for a topical gel combining adapalene+benzoyl peroxide (BPO). This gel has the following formulation (expressed as % weight/total weight): The clinical study was a multi-center, randomized, double-blind study in parallel groups, to evaluate the tolerance and the efficacy of the above formulation, in comparison with its own individual active substances placed at the same doses in gels of the same formula as that of the fixed combination (individual formulae referred to as “monads”) and in comparison with the gel vehicle (placebo formula): adapalene gel (0.1%), BPO gel (2.5%) and vehicle gel. All the treatments were applied once a day for 12 weeks, to 517 patients suffering from acne. The main efficacy criteria were: the degree of success, defined as the percentage of patients considered as being “clear”, i.e., the patient has no more acne lesions (neither comedones nor inflammatory lesions), reflecting an improvement in the patient's clinical condition, or “almost clear” on the evaluation scale; the reduction of the percentage of inflammatory and non-inflammatory lesions after 12 weeks of treatment.

TPA-induced ear edema = test: Anti-inflammatory evaluation in TPA-induced ear oedema model; assay type: in vivo, Balb/c mice; details: T+6 hours
Procedure: The study was carried out with 45 (5 par groups) female 9 weeks aged Balb/c ByJIc mice.
The Edema was induced by a single application of 20 μl of TPA dissolved in acetone at 0.01%.
The treatment was administrated by single topical application of tested compounds dissolved in TPA at 0.01% (groups 3, 4, 5, 6 and 7) and dissolved in TPA 0.01%+BPO (groups 8, 9 and 10).
The treatments activity was measured by inflammation evaluation with ear thickness at T+6 hours.

acne vulgaris lesions = test: Pooled analysis of three adapalene-BPO clinical studies (3855 patients): efficacy and synergy; assay type: in vivo, human; details: adapalene 0.1%, BPO 2.5%; for net effect (active minus vehicle), total lesions: week 1; for success rate: week 12, % patients with IGA clear or almost clear
Procedure: as §1
Eligible patients were 12 years or older with 20 to 50 inflammatory lesions (IL), 30 to 100 non-inflammatory lesions (NIL), no cysts and no more than 1 nodule on the face. […] Lesion counts were performed on the face only excluding the nose. Specified washout periods were required for patients taking certain topical and systemic treatments. Patients were excluded if they received systemic acne treatment or had dermatological conditions requiring interfering treatments. Women were excluded if they were pregnant, nursing, or planning a pregnancy. Men were excluded if they had facial hair that would interfere with assessments.
IGA was evaluated on a scale from 0 (clear: residual hyperpigmentation and erythema may be present) to 4 (severe: entire face is involved, covered with comedones, numerous papules and pustules, and few nodules and cysts).
as §2
Efficacy was evaluated by the Cochran-Mantel-Haenzsel (CMH) test, using general association for success rate and row mean differences by relative to identified distribution (RIDIT) transformed scores for percent lesion change. All tests were 2-sided.
Synergy was defined as the efficacy of combination (adapalene-BPO) greater than the sum of efficacy of individual components (adapalene alone and BPO alone). We took into account the vehicle effect by deducting it from the effect of treatments:^25
Net effect of active agent=effect of active agent−effect of vehicle Synergy=Net effect of adapalene-BPO−(Net effect of adapalene+Net effect of BPO)>0
The degree of synergy was evaluated based on the contribution of synergy to efficacy (net effect) of adapalene-BPO:
Degree of synergy(%)=(synergy/Net effect of adapalene-BPO)×100

[2] = even in the presence of light; cited from earlier work
[3] = Adapalene at 0.1% alone in TPA 0.01%
[4] = BPO at 2.5% (alone or with adapalene at 0.1%) in TPA 0.01%
[5] = BPO at 5% (alone or with adapalene at 0.1%) in TPA 0.01%
[6] = BPO at 10% (alone or with adapalene at 0.1%) in TPA 0.01%

Row | Structure (SMILES) | percentage of patients who experienced treatment-related AEs [1] [%] | reduction in lesions (acne lesions) [%] | Degree of success (acne lesions) | Progress of the lesions (as median absolute numbers): Number of inflammatory lesions (acne lesions) | Progress of the lesions (as median absolute numbers): Number of non-inflammatory lesions (acne lesions) | Progress of the lesions (as median absolute numbers): Total number of lesions (acne lesions) | Progress of the lesions (median percentages): Number of inflammatory lesions (acne lesions) [%] | Progress of the lesions (median percentages): Number of non-inflammatory lesions (acne lesions) [%] | Progress of the lesions (median percentages): Total number of lesions (acne lesions) [%] | net effect (active minus vehicle), total lesions (acne vulgaris lesions) [%] | success rate (acne vulgaris lesions) [%] | further results
1 | COc1ccc(-c2ccc3cc(C(=O)O)ccc3c2)cc1C12CC3CC(CC(C3)C1)C2 [Adapalene, 6-[3-(1-Adamantyl)-4-methoxyphenyl]-2-naphthoic acid] | 15.3 | 35 | 15.5% | −13.0 | −17.0 | −29.0 | −45.7 | −33.3 | −35.4 | 1.4 | 20.0 | Degree of success (acne lesions; listed as adapalene): 16%; Ear edema Mean (TPA-induced ear edema; [3]): 23.40; Inhibition vs TPA (%) (TPA-induced ear edema; [3]): 13% and 12.7%; stability when combined with BPO [2]: remains stable
2 | O=C(OOC(=O)c1ccccc1)c1ccccc1 [BPO, benzoyl peroxide] | 8.5 | 36 | 15% and 15.4% | −13.0 | −16.0 | −27 | −43.6 | −36.4 | −35.6 | 2.4 | 23.1 | Ear edema Mean (TPA-induced ear edema; [4]): 22.40; Inhibition vs TPA (%) (TPA-induced ear edema; [4]): 16% and 16.4%; Ear edema Mean (TPA-induced ear edema; [5]): 20.40; Inhibition vs TPA (%) (TPA-induced ear edema; [5]): 24% and 23.9%; Ear edema Mean (TPA-induced ear edema; [6]): 16.20; Inhibition vs TPA (%) (TPA-induced ear edema; [6]): 40% and 39.6%
